Assay: xn = mol fraction of the nth substance listed

O=S1(=O)CCCC1 + O
Details	viscosity [mPa·s]
293.15 K, 101 kPa, x1 = 0.02074	1.163
293.15 K, 101 kPa, x1 = 0.04649	1.387
293.15 K, 101 kPa, x1 = 0.07703	1.634
293.15 K, 101 kPa, x1 = 0.1147	1.969
293.15 K, 101 kPa, x1 = 0.1615	2.405
293.15 K, 101 kPa, x1 = 0.2247	3.044
293.15 K, 101 kPa, x1 = 0.3102	3.813
293.15 K, 101 kPa, x1 = 0.4328	4.899
293.15 K, 101 kPa, x1 = 0.6323	6.59
293.15 K, 101 kPa, x1 = 0.7807	8.243
298 K, 100 kPa, x1 = 0.0215	1
298 K, 100 kPa, x1 = 0.035	1.11
298 K, 100 kPa, x1 = 0.0679	1.32
298 K, 100 kPa, x1 = 0.0888	1.51
298 K, 100 kPa, x1 = 0.121	1.74
298 K, 100 kPa, x1 = 0.221	2.52
298 K, 100 kPa, x1 = 0.569	5.19
298.15 K, 101 kPa, x1 = 0.02074	1.038
298.15 K, 101 kPa, x1 = 0.02077	1.01
298.15 K, 101 kPa, x1 = 0.04267	1.17
298.15 K, 101 kPa, x1 = 0.04649	1.221
298.15 K, 101 kPa, x1 = 0.07103	1.59
298.15 K, 101 kPa, x1 = 0.07703	1.458
298.15 K, 101 kPa, x1 = 0.09929	1.64
298.15 K, 101 kPa, x1 = 0.1147	1.735
298.15 K, 101 kPa, x1 = 0.1615	2.129
298.15 K, 101 kPa, x1 = 0.2247	2.656
298.15 K, 101 kPa, x1 = 0.25	2.738
298.15 K, 101 kPa, x1 = 0.3102	3.347
298.15 K, 101 kPa, x1 = 0.4328	4.263
298.15 K, 101 kPa, x1 = 0.5	4.583
298.15 K, 101 kPa, x1 = 0.6323	5.775
298.15 K, 101 kPa, x1 = 0.75	6.772
298.15 K, 101 kPa, x1 = 0.7807	7.049
298.15 K, 101 kPa, x1 = 0.85	7.49
303.15 K, 101 kPa, x1 = 0.0147	0.8884
303.15 K, 101 kPa, x1 = 0.02074	0.927
303.15 K, 101 kPa, x1 = 0.02077	0.91
303.15 K, 101 kPa, x1 = 0.0208	0.9245
303.15 K, 101 kPa, x1 = 0.04267	1.04
303.15 K, 101 kPa, x1 = 0.04649	1.093
303.15 K, 101 kPa, x1 = 0.0701	1.255
303.15 K, 101 kPa, x1 = 0.07103	1.34
303.15 K, 101 kPa, x1 = 0.0744	1.273
303.15 K, 101 kPa, x1 = 0.0958	1.429
303.15 K, 101 kPa, x1 = 0.09929	1.44
303.15 K, 101 kPa, x1 = 0.1435	1.761
303.15 K, 101 kPa, x1 = 0.1586	1.852
303.15 K, 101 kPa, x1 = 0.1924	2.101
303.15 K, 101 kPa, x1 = 0.25	2.287
303.15 K, 101 kPa, x1 = 0.3022	2.856
303.15 K, 101 kPa, x1 = 0.4496	3.865
303.15 K, 101 kPa, x1 = 0.5	3.797
303.15 K, 101 kPa, x1 = 0.6077	4.963
303.15 K, 101 kPa, x1 = 0.6106	5.004
303.15 K, 101 kPa, x1 = 0.749	6.085
303.15 K, 101 kPa, x1 = 0.75	5.994
303.15 K, 101 kPa, x1 = 0.7813	6.555
303.15 K, 101 kPa, x1 = 0.85	7.236
313.15 K, 101 kPa, x1 = 0.0147	0.7245
313.15 K, 101 kPa, x1 = 0.02077	0.74
313.15 K, 101 kPa, x1 = 0.0208	0.753
313.15 K, 101 kPa, x1 = 0.0701	1.014
313.15 K, 101 kPa, x1 = 0.07103	1.01
313.15 K, 101 kPa, x1 = 0.0744	1.029
313.15 K, 101 kPa, x1 = 0.0958	1.152
313.15 K, 101 kPa, x1 = 0.09929	1.15
313.15 K, 101 kPa, x1 = 0.1435	1.414
313.15 K, 101 kPa, x1 = 0.1586	1.484
313.15 K, 101 kPa, x1 = 0.1924	1.681
313.15 K, 101 kPa, x1 = 0.25	1.928
313.15 K, 101 kPa, x1 = 0.29	2.219
313.15 K, 101 kPa, x1 = 0.3022	2.267
313.15 K, 101 kPa, x1 = 0.4496	3.059
313.15 K, 101 kPa, x1 = 0.5	3.212
313.15 K, 101 kPa, x1 = 0.6077	3.923
313.15 K, 101 kPa, x1 = 0.6106	3.962
313.15 K, 101 kPa, x1 = 0.749	4.807
313.15 K, 101 kPa, x1 = 0.75	4.743
313.15 K, 101 kPa, x1 = 0.7813	5.182
313.15 K, 101 kPa, x1 = 0.85	5.24
323.15 K, 101 kPa, x1 = 0.0147	0.6051
323.15 K, 101 kPa, x1 = 0.02077	0.63
323.15 K, 101 kPa, x1 = 0.0208	0.629
323.15 K, 101 kPa, x1 = 0.04267	0.7
323.15 K, 101 kPa, x1 = 0.0701	0.841
323.15 K, 101 kPa, x1 = 0.07103	0.84
323.15 K, 101 kPa, x1 = 0.0744	0.8536
323.15 K, 101 kPa, x1 = 0.0958	0.9537
323.15 K, 101 kPa, x1 = 0.09929	0.96
323.15 K, 101 kPa, x1 = 0.1435	1.165
323.15 K, 101 kPa, x1 = 0.1586	1.221
323.15 K, 101 kPa, x1 = 0.1924	1.379
323.15 K, 101 kPa, x1 = 0.29	1.814
323.15 K, 101 kPa, x1 = 0.3022	1.85
323.15 K, 101 kPa, x1 = 0.4496	2.486
323.15 K, 101 kPa, x1 = 0.6077	3.184
323.15 K, 101 kPa, x1 = 0.6106	3.217
323.15 K, 101 kPa, x1 = 0.749	3.896
323.15 K, 101 kPa, x1 = 0.7813	4.197

— the CheMixHub viscosity set
